Key:
[1] = system: control strain SME3359 (lacZ reporter under synthetic promoter repressed by LacI); experiment: Control strain dose-response assay; assay type: cell-based, E. coli; conditions: for Control strain IC50: E. coli strain SME3359, 1 mM IPTG, 3 hours at 37°C, 6.2% DMSO; for IC50: Escherichia coli, 3 h, read-out: Control strain IC50
[2] = Stability towards thiol nucleophile glutathione; assay type: physicochemical; conditions: 10 µM in PBS pH 7.4 (1% DMSO), 50 µM GSH, room temperature, up to 48 hours
VirF [3] = biological target: T1, VirF (Shigella flexneri, UniProt P0A2T1); experiment: cell-based; assay type: cell-based; conditions: for VirF IC50: E. coli strain SME4382, virB-lacZ fusion, 1 mM IPTG, 3 hours at 37°C, 6.2% DMSO
T1 sequence (P0A2T1 whole entry, the tested form may be a part): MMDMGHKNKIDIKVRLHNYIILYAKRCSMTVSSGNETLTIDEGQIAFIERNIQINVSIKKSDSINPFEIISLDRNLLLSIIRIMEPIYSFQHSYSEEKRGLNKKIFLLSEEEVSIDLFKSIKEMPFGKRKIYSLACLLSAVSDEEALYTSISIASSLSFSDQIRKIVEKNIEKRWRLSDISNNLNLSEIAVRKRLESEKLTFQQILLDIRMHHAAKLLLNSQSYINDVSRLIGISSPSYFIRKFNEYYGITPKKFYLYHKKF

[4] = system: E. coli strains SME4382 and SME3359; experiment: E. coli growth experiments; assay type: cell-based; conditions: VirF and control strains, TY broth, 44 µM compound, 6.2% DMSO, 37°C
VirF [5] = biological target: T1, VirF; conditions: cell-based reporter gene assays with S. flexneri and E. coli; cited from earlier work
[6] = Aqueous stability in PBS pH 7.4 by RP HPLC/UV/HRMS; assay type: physicochemical; conditions: 10 µM in PBS pH 7.4 (1% DMSO), room temperature; by the 0th time point, about 30 minutes elapsed
[7] = system: VirF-dependent virulence genes (icsS, icsB, ipaB, virB); conditions: virB in S. flexneri; cited from earlier work
VirF [8] = biological target: T1, VirF; conditions: purified VirF, in vitro; cited from earlier work

For “1‧-hexyl-[2,3‧-biquinolin]-1‧-ium bromide [Entry 21]”, the “Control strain IC50” value [1] was “not inhibiting the control strain”.
In the case of “1‧-propyl-[2,3‧-biquinolin]-1‧-ium bromide [Entry 20]”, the “Control strain IC50” value [1] is reported as “not inhibiting the control strain”.
With `Clc1ccc(C[n+]2cc(-c3ccc4ccccc4n3)cc3ccccc32)cc1.[Br-]` [Entry 3, 1‧-(4-chlorobenzyl)-[2,3‧-biquinolin]-1‧-ium bromide] the GSH adduct formation [2] was “no GSH adducts were observed”.
In the case of `CCCCN1C=C(c2cccc(C)n2)C(C[N+](=O)[O-])c2ccccc21` (centres unmarked) [Entry 6, 1-butyl-3-(6-methylpyridin-2-yl)-4-(nitromethyl)-1,4-dihydroquinoline], the IC50 [1] is reported as over 100 µM, the IC50 (VirF [3]) is reported as over 100 µM and the “Effect on bacterial growth” value [4] is reported as “inhibited the growth of the bacteria”.
`CCCCN1C=C(c2cccc(Cl)c2)C(C[N+](=O)[O-])c2ccccc21` (centres unmarked) [Entry 7, 1-butyl-3-(3-chlorophenyl)-4-(nitromethyl)-1,4-dihydroquinoline] showed an IC50 [1] of over 100 µM.
For `CCCCN1C=C(c2ccc3ccccc3n2)C(c2ccccc2)c2ccccc21` (centres unmarked) [Entry 8, 1‧-butyl-4‧-phenyl-1‧,4‧-dihydro-2,3‧-biquinoline], the “Control strain IC50” value [1] was “No inhibition” and the “VirF IC50” value (VirF [3]) was “No inhibition”.
For `CCCCN1c2ccccc2C=C(c2ccc3ccccc3n2)C1C` (centres unmarked) [Entry 10, 1‧-butyl-2‧-methyl-1‧,2‧-dihydro-2,3‧-biquinoline], the “Control strain IC50” value [1] was “No inhibition” and the “VirF IC50” value (VirF [3]) was “No inhibition”.
With `CCCCn1cc(-c2ccc3ccccc3n2)c2ccccc21` [Entry 12, 2-(1-butyl-1 H-indol-3-yl)quinoline] the “Control strain IC50” value [1] was “no inhibitory activity” and the “VirF IC50” value (VirF [3]) was “no inhibitory activity”.
In the case of `CCCCn1c2ccccc2c(=O)c2ccccc21` [Entry 15, 10-butylacridin-9(10H)-one], the “Control strain IC50” value [1] is reported as “no inhibitory activity” and the “VirF IC50” value (VirF [3]) is reported as “no inhibitory activity”.
For `CCCCCCCCC[n+]1ccccc1.[Br-]` [Entry 17, 1-nonylpyridin-1-ium bromide], the “Control strain IC50” value [1] was “good to modest, non-specific activity”, the IC50 [1] was over 50 µM and the IC50 (VirF [3]) was over 50 µM. The “VirF IC50” value (VirF [3]) was “good to modest, non-specific activity”.
With `CCCCCCCCC[N+](CC)(CC)CC.[Br-]` [Entry 18, N,N,N-triethylnonan-1-aminium bromide] the “Control strain IC50” value [1] was “no inhibitory activity” and the “VirF IC50” value (VirF [3]) was “no inhibitory activity”.
For `CC(C)[n+]1cc(-c2ccc3ccccc3n2)cc2ccccc21.[I-]` [Entry 19, 1‧-isopropyl-[2,3‧-biquinolin]-1‧-ium iodide], the “Control strain IC50” value [1] was “not inhibiting the control strain”.
`CCCC[n+]1cc(-c2ccc3ccccc3c2)cc2ccccc21` [Entry 23, 1-butyl-3-(naphthalen-2-yl)quinolin-1-ium bromide] showed an IC50 [1] of over 100 µM and an IC50 (VirF [3]) of 9 µM.
For `C=CCCC[n+]1cc(-c2ccc3ccccc3n2)cc2ccccc21.[Br-]` [Entry 24, 1‧-(pent-4-en-1-yl)-[2,3‧-biquinolin]-1’-ium bromide], the “Control strain IC50” value [1] was “not inhibiting the control strain”.
In the case of `CCCCN1C=C(c2ccc3ccccc3n2)C(C[N+](=O)[O-])c2ccccc21` (centres unmarked) [SE-1, 1‧-Butyl-4‧-(nitromethyl)-1‧,4’-dihydro-2,3‧-biquinoline], the “Inhibition of transcription activation by VirF” value (VirF [5]) is given as “inhibitor”, the “Aqueous stability (degradation to the corresponding quaternary salt)” value [6] is given as “degraded completely” and the “Expression of VirF-dependent virulence genes (mRNA)” value [7] is given as “reduced the expression”. For the same compound, the “Inhibition of DNA binding by VirF” value (VirF [8]) was “inhibitor”.

— publication PMC4170738 (RSC advances, 2014)
